Reference: ChEMBL document CHEMBL1201862, “PubChem BioAssay data set” (2004)
Calls of active or inactive are those of the source.

Key:
[1] = target: Prothrombin (Homo sapiens, UniProt P00734); assay: Thrombin 1536 HTS Dose Response Confirmation. [Related pubchem assays: 1046 (Thrombin 1536 HTS; hits were confirmed in this assay)]; type: functional
[2] = target: T1, Mucolipin-3 (Homo sapiens, UniProt Q8TDD5); assay: Dose response cell-based high-throughput screening assay for agonists of the transient receptor potential channel ML3 (TRPML3). [Related pubchem assays: 1526, 1424, 1448 ]; type: functional
T1 sequence (Q8TDD5 whole entry): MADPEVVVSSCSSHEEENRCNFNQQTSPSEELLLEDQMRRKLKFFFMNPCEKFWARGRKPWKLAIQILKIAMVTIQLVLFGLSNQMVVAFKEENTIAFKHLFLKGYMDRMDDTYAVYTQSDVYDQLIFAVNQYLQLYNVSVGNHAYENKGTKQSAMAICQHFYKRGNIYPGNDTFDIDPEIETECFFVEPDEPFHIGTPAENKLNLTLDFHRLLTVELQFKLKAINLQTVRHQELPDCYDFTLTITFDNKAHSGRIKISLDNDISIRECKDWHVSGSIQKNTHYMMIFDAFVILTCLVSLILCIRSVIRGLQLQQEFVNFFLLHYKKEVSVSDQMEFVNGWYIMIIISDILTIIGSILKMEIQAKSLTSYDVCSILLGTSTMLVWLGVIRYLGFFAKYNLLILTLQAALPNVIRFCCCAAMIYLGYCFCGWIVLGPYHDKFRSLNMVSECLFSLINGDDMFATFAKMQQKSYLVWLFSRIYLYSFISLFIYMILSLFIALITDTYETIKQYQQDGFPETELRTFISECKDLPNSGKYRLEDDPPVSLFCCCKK

[3] = target: Ion channel NompC (Danio rerio, UniProt Q7T1G6); assay: Fluorescence counterscreen assay for TRPML3 agonists: dose response cell-based high-throughput screening assay to identify agonists of the transient receptor potential channel N1 (TRPN1). [Related pubchem assays: 1526, 1424, 1448 ]; type: functional
[4] = P. falciparum late gametocyte killing, dose response, luminescence (AID 1117278); type: functional, cell-based;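 note: gametocytes exposed to compound for 24 hours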
[5] = Jurkat T cell cytotoxicity, dose response, cytotoxicity control for P. falciparum gametocyte viability project, luminescence (AID 1117277); type: functional, cell-based;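 note: potency reflects loss of cellular ATP meaning fewer viable cells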
[6] = cytotoxicity in KRAS-transformed pancreatic duct cells, primary screen, cell-based, fluorescence, HTS (AID 431); type: functional; conditions: Homo sapiens;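 note: cell line used: HPDE-C7K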
[7] = cytotoxicity in HPDE-C7 cells, cell-based, fluorescence, HTS (AID 430); type: functional; conditions: Homo sapiens
[8] = target: T2, NADPH oxidase 1 (Homo sapiens, UniProt Q9Y5S8); type: functional, cell-based;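 note: Cell-based assay with luminescence read-out, IC50 derived from inhibitor dose-response curves; intracellular ROS from endogenous NOX1 in intact HT29 colon cancer cells; potency of inhibitors that lower the ROS luminescence signal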
T2 sequence (Q9Y5S8 whole entry): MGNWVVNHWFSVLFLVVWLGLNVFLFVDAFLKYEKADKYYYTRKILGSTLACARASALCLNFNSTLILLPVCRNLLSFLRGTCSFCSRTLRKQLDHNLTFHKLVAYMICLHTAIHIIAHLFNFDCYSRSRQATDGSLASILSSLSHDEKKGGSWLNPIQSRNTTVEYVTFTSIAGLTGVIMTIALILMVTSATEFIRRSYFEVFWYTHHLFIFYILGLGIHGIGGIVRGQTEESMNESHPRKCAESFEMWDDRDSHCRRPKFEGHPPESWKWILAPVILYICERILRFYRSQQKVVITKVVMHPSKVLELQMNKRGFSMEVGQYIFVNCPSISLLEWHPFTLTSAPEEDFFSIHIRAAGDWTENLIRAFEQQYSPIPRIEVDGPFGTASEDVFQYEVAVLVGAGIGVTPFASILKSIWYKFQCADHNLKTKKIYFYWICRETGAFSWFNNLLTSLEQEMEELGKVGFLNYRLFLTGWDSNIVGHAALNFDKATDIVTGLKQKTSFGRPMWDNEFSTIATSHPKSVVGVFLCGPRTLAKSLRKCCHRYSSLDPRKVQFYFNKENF

[9] = target: T3, Genome polyprotein (Hepatitis C virus, UniProt Q2Q167); assay: HCV core protein dimerization inhibitors, dose response, biochemical, TR-FRET (AID 2159); design: species or system Hepacivirus hominis;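 note: blocks dimerization of HCV core protein measured by TR-FRET between tagged core106 pairs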
T3 sequence (Q2Q167 whole entry): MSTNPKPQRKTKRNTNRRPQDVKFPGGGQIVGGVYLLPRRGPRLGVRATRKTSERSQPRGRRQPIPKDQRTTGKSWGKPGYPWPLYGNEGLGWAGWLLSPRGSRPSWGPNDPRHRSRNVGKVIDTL

[10] = target: T4, Caspase-6 (Homo sapiens, UniProt P55212); assay: human caspase-6 inhibitors, dose response, biochemical, VEID-R110 fluorescence, cherry-pick (AID 720632)
T4 sequence (P55212 whole entry): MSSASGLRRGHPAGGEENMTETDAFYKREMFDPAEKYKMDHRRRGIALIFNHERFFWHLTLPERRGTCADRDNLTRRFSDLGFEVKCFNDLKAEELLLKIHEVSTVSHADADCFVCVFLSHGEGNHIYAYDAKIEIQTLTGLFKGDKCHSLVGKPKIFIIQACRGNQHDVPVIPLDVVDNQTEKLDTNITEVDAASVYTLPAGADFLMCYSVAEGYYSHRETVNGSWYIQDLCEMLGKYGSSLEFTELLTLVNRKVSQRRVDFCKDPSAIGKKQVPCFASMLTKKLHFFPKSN

[11] = target: T5, Tyrosyl-DNA phosphodiesterase 2 (Homo sapiens, UniProt O95551); assay: human TDP2 enzyme inhibitors, dose response, biochemical, epi absorbance, IC50 (AID 743297)
T5 sequence (O95551 whole entry): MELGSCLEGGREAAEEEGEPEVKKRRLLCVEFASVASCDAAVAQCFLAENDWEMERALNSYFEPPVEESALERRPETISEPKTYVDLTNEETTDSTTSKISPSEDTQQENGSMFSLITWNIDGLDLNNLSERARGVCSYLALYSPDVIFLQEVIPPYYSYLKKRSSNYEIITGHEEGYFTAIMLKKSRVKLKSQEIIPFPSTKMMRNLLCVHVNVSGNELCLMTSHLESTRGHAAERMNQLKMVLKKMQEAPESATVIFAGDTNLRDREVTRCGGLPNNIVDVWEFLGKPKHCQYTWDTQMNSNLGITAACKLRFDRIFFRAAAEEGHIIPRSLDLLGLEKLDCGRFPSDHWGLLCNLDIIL

[12] = target: T6, Histone-lysine N-methyltransferase NSD2 (Homo sapiens, UniProt O96028); type: biochemical
T6 sequence (O96028 whole entry): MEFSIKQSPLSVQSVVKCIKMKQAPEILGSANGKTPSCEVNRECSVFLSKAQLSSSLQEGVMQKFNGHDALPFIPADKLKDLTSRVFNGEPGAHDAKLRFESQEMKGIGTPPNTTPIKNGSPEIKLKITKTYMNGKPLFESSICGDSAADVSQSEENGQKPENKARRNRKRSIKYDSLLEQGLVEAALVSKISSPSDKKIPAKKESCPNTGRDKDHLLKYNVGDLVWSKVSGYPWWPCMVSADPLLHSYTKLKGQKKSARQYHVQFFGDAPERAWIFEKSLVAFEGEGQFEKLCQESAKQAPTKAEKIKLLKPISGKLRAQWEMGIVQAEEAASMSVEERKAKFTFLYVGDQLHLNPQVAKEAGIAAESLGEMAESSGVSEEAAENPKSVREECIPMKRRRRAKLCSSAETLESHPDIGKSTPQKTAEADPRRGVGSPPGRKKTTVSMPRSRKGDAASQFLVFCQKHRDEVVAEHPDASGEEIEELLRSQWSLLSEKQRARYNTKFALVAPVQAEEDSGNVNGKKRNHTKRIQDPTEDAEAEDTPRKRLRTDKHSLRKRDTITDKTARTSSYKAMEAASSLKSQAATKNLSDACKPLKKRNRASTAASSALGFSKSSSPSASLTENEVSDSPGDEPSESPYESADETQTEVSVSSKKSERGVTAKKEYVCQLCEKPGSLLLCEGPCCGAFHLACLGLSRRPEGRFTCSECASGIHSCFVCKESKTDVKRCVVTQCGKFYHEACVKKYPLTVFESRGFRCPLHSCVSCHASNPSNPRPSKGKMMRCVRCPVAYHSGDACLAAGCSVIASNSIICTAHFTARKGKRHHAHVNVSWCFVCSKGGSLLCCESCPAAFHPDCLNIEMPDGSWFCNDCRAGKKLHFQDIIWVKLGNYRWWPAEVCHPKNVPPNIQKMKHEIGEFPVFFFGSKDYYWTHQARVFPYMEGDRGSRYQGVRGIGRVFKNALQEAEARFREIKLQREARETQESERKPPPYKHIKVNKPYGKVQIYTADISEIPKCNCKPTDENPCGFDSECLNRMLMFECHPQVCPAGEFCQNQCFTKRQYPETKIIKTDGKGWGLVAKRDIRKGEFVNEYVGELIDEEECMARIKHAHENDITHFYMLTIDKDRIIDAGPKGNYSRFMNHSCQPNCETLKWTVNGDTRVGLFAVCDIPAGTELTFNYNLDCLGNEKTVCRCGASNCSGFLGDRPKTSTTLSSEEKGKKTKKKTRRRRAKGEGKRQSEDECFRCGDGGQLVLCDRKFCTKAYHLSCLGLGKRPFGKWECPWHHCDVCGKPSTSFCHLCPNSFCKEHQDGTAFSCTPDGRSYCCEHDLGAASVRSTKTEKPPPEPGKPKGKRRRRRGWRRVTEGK

[13] = target: T7, Cytochrome P450 1A2 (Homo sapiens, UniProt P05177);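 note: PubChem cytochrome P450 panel assay, CYP1A2 panel member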
T7 sequence (P05177 whole entry): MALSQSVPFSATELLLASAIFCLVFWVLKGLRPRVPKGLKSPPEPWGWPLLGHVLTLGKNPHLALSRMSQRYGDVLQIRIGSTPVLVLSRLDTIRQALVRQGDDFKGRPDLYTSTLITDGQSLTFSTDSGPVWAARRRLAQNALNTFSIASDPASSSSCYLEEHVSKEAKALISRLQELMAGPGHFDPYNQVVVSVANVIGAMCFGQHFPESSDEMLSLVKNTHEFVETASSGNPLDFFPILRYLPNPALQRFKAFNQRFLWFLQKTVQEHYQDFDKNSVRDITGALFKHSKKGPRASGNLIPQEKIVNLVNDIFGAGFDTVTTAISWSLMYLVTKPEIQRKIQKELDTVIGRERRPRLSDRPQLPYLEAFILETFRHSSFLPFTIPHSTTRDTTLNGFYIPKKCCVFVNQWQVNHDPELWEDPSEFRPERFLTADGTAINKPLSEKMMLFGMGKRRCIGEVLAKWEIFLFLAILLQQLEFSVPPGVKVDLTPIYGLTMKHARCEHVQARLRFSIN

[14] = cytotoxicity toward HCT116 cells – cell-based, CellTiter-Glo luminescence, IC50, dose response (AID 1117332); type: functional; conditions: HCT-116
[15] = Concentration-dependent survival of SW480 colon cancer line, luminescence detection with CellTiter-Glo, half-maximal inhibitory concentration (AID 1117338); type: functional
[16] = cytotoxicity toward Colo320 cells – cell-based, CellTiter-Glo luminescence, IC50, dose response (AID 1117334); type: functional; conditions: COLO 320
[17] = system: INS1; assay: beta cell apoptosis inhibitors, cytokine rescue, dose response, luminescence, retest (AID 449756); type: functional, cell-based; conditions: Rattus norvegicus;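 note: cell death triggered by IL-1 beta plus TNF-alpha plus IFN-gamma mixture; protective hits raise ATP signal compared with cytokine alone wells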
[18] = CellTiter-Glo luminescent dose response of DLD-1 viability loss (AID 1117352); type: functional
[19] = HCT116 cell viability decrease, GSK3B pretreatment – CellTiter-Glo, IC50, dose response (AID 1117339); type: functional; conditions: HCT-116
[20] = HeLa 2N DNA content increase, dose response, cell-based, IC50 (AID 1117349); type: functional
[21] = HeLa 4N DNA content increase, dose response, cell-based, IC50 (AID 1117351); type: functional
[22] = SNU-C1 cell viability reduction, dose response, CellTiter-Glo luminescence (AID 1117323); type: functional, cell-based
[23] = target: Heat shock protein HSP 90-alpha (Homo sapiens, UniProt P07900); type: functional, organism-based
[24] = RKO cell viability reduction, dose response, CellTiter-Glo luminescence (AID 1117322); type: functional

Ion channel NompC, sequence (Q7T1G6 whole entry): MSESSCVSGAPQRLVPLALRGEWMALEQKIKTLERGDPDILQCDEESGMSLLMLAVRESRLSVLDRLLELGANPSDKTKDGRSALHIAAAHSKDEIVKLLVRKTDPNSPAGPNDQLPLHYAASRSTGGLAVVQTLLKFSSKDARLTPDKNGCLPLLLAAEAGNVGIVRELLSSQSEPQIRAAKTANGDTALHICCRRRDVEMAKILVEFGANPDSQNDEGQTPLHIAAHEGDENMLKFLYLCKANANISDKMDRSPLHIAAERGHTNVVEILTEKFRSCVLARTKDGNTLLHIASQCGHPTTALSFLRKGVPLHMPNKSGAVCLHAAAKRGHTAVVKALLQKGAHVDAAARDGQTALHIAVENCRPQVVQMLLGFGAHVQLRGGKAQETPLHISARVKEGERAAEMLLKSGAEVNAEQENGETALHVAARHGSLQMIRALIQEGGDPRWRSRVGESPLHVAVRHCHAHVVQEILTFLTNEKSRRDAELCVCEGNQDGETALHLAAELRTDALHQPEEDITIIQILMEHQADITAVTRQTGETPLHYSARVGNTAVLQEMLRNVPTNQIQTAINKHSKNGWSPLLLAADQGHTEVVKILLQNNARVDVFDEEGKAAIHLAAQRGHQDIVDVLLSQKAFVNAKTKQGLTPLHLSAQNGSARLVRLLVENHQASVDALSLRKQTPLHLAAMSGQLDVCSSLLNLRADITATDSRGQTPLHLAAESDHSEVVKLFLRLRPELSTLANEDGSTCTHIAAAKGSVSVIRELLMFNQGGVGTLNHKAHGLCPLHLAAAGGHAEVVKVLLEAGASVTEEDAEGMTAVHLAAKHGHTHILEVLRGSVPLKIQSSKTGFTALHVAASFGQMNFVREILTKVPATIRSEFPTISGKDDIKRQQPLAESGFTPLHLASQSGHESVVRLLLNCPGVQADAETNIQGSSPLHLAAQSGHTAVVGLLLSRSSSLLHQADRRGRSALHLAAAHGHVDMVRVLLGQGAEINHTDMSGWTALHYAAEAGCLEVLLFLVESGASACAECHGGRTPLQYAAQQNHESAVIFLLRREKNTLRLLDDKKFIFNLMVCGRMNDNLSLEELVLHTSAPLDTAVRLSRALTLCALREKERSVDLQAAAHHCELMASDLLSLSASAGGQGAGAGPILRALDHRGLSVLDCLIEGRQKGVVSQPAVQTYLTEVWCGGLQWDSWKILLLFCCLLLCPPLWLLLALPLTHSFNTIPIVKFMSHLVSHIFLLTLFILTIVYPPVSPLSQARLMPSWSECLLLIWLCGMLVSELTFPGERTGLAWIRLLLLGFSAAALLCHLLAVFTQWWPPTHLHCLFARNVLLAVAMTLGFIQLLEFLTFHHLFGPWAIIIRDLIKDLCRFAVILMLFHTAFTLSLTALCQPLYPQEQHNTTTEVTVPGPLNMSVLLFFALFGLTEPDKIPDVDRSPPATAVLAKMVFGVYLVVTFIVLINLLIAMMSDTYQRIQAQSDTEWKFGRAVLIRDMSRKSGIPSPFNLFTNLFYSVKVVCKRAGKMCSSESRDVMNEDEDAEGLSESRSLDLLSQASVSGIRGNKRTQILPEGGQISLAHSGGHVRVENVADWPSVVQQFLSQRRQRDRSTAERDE

## Cc1ccc2c(c1)CC1(CN2C)C(=O)OC(C)(C)OC1=O
[1]
  IC50: 1.69 µM (active)

## O=C(CC(Nc1ccc(F)cc1)C(=O)OCC(=O)c1cccs1)c1ccccc1 (centres undefined)
[1]
  IC50: 2.82 µM (active)

## COc1ccc(S(=O)(=O)N(CC(=O)N2CCOCC2)c2cc(Cl)ccc2OC)cc1OC
[2]
  EC50: 4.75 µM (active)
[3]
  EC50: > 29.9 µM (not active)

## O=C(c1ccco1)N1CCN(C(=O)C2c3ccccc3Oc3ccccc32)CC1
[4]
  IC50: > 109 µM (inactive)
[5]
  IC50: 64.4 µM (inactive)

## CCCCOc1cccc(C(=O)Nc2ccc(N3CCN(CC)CC3)cc2)c1
[6]
  EC50: > 20 µM (not active)
[7]
  EC50: > 20 µM (not active)

## CN(C1CCS(=O)(=O)C1)S(=O)(=O)c1ccccc1 (centres undefined)
[4]
  IC50: > 109 µM (inactive)
[5]
  IC50: > 83.3 µM (inactive)

## O=C(Oc1ccc(Cl)cc1)c1sc2ccccc2c1Cl
[8]
  IC50: > 17 µM (not active)

## COc1cccc(NC(=O)CN(C)C(=O)c2cc3c(s2)CCC3)c1
[9]
  IC50: > 49.8 µM (not active)

## O=C(/C=C/c1ccc(Br)o1)OCc1nc(O)c2sccc2n1
[9]
  IC50: 18.2 µM (not active)

## CC(=O)Nc1ccc(-c2nc(-c3ccccc3)c(-c3ccccc3)[nH]2)cc1
[8]
  IC50: > 17 µM (not active)

## COc1ccc(-c2nc(-c3ccc(OC)cc3)c(-c3ccc(OC)cc3)[nH]2)cc1
[8]
  IC50: > 17 µM (not active)

## O=C(CSc1nc2ncnc-2c(O)[nH]1)NC1CCCCC1
[1]
  IC50: > 50 µM (not active)

## COc1cc(N)c2ncccc2c1Br
[10]
  AC50: 10 µM (active)
[11]
  IC50: > 128 µM (inactive)
[12]
  AC50: 13.1 µM (active)

## Cc1ccc(CN2CCN(Cc3ccc(-n4cccn4)cc3)CC2CCO)cc1 (centres undefined)
[4]
  IC50: > 109 µM (inactive)
[5]
  IC50: > 83.4 µM (inactive)

## CO[C@H]1CN(C)C(=O)c2cc(NC(C)=O)ccc2OC[C@@H](C)N(C(=O)CC2CC2)C[C@H]1C
[10]
  AC50: 12.1 µM (active)

## Cc1cc(C2CCCCC2)n(O)c(=O)c1 [CICLOPIROX OLAMINE]
[13]
  AC50: 15.8 µM (inconclusive)
[14]
  IC50: 0.656 µM (active)
[15]
  IC50: 0.469 µM (active)
[16]
  IC50: 0.208 µM (active)
[17]
  AC50: 0.78 µM (active)
[18]
  IC50: 0.316 µM (active)
[19]
  IC50: 0.39 µM (active)
[20]
  IC50: > 10 µM (inactive)
[21]
  IC50: > 10 µM (inactive)
[22]
  IC50: > 20 µM (inactive)
[23]
  AC50: < 0.195 µM (active)
[24]
  IC50: 0.233 µM (active)
